In patent US20260021103A1, “IKZF2 AND CK1-ALPHA DEGRADING COMPOUNDS AND USES THEREOF” (President and Fellows of Harvard College, priority 2022, published 2026):

Experiments:
Type in all cases: cell-based
CK1α = molecular target: T1, CK1α (Homo sapiens, UniProt P48729+Q96SW2); assay: Flow cytometry for measuring degradation, HEK293T GFP-POI reporter cells (CK1α); conditions: for CK1α % degradation at 100 nM / CK1α % degradation at 1 μM: 24 h, HEK293T GFP reporter
T1 construct: expressed in transfected cells; host or cells: HEK293T (lentiviral transduction, puromycin selection, FACS sorting)
T1 sequence (P48729 whole entry): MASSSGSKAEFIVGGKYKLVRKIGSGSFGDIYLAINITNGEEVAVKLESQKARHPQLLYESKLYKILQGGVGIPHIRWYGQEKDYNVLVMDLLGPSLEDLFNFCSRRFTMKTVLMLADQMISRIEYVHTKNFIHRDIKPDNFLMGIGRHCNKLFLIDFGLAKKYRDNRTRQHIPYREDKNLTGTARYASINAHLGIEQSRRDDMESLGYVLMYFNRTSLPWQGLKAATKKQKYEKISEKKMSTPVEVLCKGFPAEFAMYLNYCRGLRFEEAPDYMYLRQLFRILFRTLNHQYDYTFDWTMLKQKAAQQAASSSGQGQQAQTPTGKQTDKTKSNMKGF
T1 sequence (Q96SW2 whole entry): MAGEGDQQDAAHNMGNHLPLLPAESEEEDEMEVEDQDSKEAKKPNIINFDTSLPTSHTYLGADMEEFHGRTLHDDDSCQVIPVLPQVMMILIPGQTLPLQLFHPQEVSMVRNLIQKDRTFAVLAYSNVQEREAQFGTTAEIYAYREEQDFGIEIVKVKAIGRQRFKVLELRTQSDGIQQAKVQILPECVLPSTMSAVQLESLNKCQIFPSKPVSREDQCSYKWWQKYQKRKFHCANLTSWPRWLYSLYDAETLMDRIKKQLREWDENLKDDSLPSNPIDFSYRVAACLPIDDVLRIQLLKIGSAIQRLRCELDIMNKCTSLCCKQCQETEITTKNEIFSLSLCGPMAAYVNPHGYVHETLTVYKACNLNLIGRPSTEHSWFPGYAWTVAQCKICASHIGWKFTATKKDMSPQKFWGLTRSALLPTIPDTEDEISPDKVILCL
T1 sequence (Q16531 whole entry partner): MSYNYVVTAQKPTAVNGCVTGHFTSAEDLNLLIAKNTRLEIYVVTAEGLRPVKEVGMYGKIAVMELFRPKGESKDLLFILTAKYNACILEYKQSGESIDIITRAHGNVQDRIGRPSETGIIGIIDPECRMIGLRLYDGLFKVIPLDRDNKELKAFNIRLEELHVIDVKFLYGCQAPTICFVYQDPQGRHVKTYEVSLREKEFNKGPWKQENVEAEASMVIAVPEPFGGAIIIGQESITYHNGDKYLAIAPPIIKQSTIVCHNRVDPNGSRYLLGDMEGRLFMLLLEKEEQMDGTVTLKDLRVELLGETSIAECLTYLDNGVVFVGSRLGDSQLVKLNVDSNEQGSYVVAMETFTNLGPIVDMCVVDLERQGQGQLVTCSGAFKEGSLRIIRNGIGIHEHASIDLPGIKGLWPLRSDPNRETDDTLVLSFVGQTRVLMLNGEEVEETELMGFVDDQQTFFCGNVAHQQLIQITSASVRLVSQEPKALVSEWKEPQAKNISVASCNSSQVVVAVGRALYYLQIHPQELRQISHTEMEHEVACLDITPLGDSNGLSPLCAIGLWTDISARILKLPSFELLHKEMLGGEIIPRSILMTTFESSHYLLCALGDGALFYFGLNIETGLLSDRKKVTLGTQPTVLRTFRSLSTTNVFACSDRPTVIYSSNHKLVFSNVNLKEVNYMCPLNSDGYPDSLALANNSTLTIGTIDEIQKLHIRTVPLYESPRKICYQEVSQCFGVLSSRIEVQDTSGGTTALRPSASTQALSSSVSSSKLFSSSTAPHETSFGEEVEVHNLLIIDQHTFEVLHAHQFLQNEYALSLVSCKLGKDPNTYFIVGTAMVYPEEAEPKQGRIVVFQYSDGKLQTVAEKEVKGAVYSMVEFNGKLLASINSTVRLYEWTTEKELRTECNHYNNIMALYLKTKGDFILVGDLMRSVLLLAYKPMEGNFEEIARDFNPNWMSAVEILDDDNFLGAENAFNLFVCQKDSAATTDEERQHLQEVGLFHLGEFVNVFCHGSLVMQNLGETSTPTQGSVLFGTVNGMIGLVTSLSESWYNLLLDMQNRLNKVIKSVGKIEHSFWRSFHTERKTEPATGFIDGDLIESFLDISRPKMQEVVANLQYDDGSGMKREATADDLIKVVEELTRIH

GSPT1 = GSPT1 (Homo sapiens, UniProt P15170+Q96SW2); assay: Flow cytometry for measuring degradation, HEK293T GFP-POI reporter cells (GSPT1); set-up: expressed in transfected cells; host or cells: HEK293T; conditions: for GSPT1% degradation at 100 nM / GSPT1% degradation at 1 μM: 24 h, HEK293T GFP reporter
Chain of GSPT1 (P15170 whole entry): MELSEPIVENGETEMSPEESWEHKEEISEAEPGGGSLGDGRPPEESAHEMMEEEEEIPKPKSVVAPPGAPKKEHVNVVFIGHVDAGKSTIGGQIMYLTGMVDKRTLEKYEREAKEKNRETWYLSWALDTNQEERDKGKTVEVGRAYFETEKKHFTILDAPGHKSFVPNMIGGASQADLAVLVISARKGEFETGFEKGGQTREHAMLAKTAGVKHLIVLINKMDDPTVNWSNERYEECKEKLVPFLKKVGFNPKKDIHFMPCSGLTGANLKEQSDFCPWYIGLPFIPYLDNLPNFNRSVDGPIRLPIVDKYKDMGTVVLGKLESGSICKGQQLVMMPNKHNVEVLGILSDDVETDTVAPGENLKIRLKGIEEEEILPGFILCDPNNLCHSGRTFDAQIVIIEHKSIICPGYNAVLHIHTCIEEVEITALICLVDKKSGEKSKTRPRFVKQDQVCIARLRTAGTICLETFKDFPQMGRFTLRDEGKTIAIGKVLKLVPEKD
Chain of GSPT1 (Q96SW2 whole entry): as the sequence (Q96SW2 whole entry) above
Chain of GSPT1 (Q16531 whole entry partner): as the sequence (Q16531 whole entry partner) above

IKZF1 = molecular target: T2, IKZF1 (Homo sapiens, UniProt Q13422+Q96SW2); assay: Flow cytometry for measuring degradation, HEK293T GFP-POI reporter cells (IKZF1); conditions: for IKZF1% degradation at 100 nM / IKZF1% degradation at 1 μM: 24 h, HEK293T GFP reporter
T2 construct: expressed in transfected cells; host or cells: HEK293T (lentiviral transduction, puromycin selection, FACS sorting)
T2 sequence (Q13422 whole entry): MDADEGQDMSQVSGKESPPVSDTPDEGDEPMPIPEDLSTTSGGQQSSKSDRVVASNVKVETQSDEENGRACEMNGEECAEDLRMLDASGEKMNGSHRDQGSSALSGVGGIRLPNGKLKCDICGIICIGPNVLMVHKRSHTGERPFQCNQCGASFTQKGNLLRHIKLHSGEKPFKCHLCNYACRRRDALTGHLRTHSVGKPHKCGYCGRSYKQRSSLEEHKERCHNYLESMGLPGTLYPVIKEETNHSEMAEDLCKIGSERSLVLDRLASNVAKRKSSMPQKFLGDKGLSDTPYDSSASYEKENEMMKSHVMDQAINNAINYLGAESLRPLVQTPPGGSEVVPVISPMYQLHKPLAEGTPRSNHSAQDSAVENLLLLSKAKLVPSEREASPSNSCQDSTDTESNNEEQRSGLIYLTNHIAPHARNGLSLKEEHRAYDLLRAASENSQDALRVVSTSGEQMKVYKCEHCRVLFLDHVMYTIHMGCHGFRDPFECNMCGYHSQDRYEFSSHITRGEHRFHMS
T2 sequence (Q96SW2 whole entry): as the sequence (Q96SW2 whole entry) above
T2 sequence (Q16531 whole entry partner): as the sequence (Q16531 whole entry partner) above

IKZF2 = molecular target: T3, IKZF2 (Homo sapiens, UniProt Q96SW2+Q9UKS7); assay: Flow cytometry for measuring degradation, HEK293T GFP-POI reporter cells (IKZF2); conditions: for IKZF2% degradation at 100 nM / IKZF2% degradation at 1 μM: 24 h, HEK293T GFP reporter
T3 construct: expressed in transfected cells; host or cells: HEK293T (lentiviral transduction, puromycin selection, FACS sorting)
T3 sequence (Q9UKS7 whole entry): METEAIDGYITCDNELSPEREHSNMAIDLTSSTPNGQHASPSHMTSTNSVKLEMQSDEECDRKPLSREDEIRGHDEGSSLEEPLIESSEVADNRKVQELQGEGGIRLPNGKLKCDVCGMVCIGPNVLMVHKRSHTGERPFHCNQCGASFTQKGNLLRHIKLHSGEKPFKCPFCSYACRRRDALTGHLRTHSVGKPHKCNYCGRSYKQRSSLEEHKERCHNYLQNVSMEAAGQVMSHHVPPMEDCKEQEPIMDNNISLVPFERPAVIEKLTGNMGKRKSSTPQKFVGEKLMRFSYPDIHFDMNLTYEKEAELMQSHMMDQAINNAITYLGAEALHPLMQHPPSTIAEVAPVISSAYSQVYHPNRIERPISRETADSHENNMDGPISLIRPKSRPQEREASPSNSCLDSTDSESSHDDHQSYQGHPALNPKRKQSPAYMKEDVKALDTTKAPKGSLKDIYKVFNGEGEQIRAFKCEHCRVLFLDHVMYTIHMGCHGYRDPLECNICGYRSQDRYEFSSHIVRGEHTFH
T3 sequence (Q96SW2 whole entry): as the sequence (Q96SW2 whole entry) above
T3 sequence (Q16531 whole entry partner): as the sequence (Q16531 whole entry partner) above

Row | SMILES | CK1α % degradation at 100 nM (CK1α) | CK1α % degradation at 1 μM (CK1α) | Dmax (CK1α; CK1, Table 3, read-out: Dmax CK1a (%)) | DC50 (CK1α; Table 3, read-out: DC50 CK1a) | GSPT1% degradation at 100 nM (GSPT1) | GSPT1% degradation at 1 μM (GSPT1) | Dmax (GSPT1; HEK-293T, Table 3) | IKZF1% degradation at 100 nM (IKZF1) | IKZF1% degradation at 1 μM (IKZF1) | Dmax (IKZF1; HEK-293T, Table 3) | IKZF2% degradation at 100 nM (IKZF2) | IKZF2% degradation at 1 μM (IKZF2) | Dmax (IKZF2; HEK-293T, Table 3) | DC50 (IKZF2; Table 3)
1 | CS(=O)(=O)c1ccc2cc(C(=O)Nc3ccc4c(c3)CN(C3CCC(=O)NC3=O)C4=O)ccc2c1 (stereo not shown) [DEG-93, N-(2-(2,6-dioxopiperidin-3-yl)-1-oxoisoindolin-5-yl)-6-(methylsulfonyl)-2-naphthamide] | 60.2% | 74.6% | 78.9% | 21.1 nM | 7.8% | 10.6% | 14.6% | 4.9% | 7.0% | 10.4% | 56.0% | 87.7% | 95.1% | 73.1 nM
2 | CC(=O)Nc1ccc2c(c1)CN(C1CCC(=O)NC1=O)C2=O (stereo not shown) [DEG-66, N-(2-(2,6-dioxopiperidin-3-yl)-1-oxoisoindolin-5-yl)acetamide] | 12 ± 1.3% | 25.4 ± 0.8% | – | – | 9.9 ± 0.8% | 8.6 ± 0.8% | – | 4.4 ± 0.8% | 10.9 ± 0.9% | – | 16.6 ± 0.1% | 48.5 ± 0.2% | – | –
3 | O=C1CCC(N2Cc3cc(NC(=O)C4=COc5ccccc5O4)ccc3C2=O)C(=O)N1 (stereo not shown) [DEG-63, N-(2-(2,6-dioxopiperidin-3-yl)-1-oxoisoindolin-5-yl)benzo[b][1,4]dioxine-2-carboxamide] | 46.4 ± 1.4% | 60.3 ± 1.2% | – | – | −0.1 ± 1.2% | 1.2 ± 0.3% | – | 13.4 ± 0.7% | 35.2 ± 0.6% | – | 70.8 ± 0.6% | 90.7 ± 0.2% | – | –
4 | COc1ccc2c(CC(=O)Nc3ccc4c(c3)CN(C3CCC(=O)NC3=O)C4=O)cccc2c1 (stereo not shown) [DEG-58, N-(2-(2,6-dioxopipperidin-3-yl)-1-oxoisoindolin-5-yl)-2-(6-methoxynaphthalen-1-yl)acetamide] | 63.4 ± 0.6% | 57 ± 0.1% | – | – | 29 ± 1.9% | 41.9 ± 0.8% | – | 97.7 ± 0.1% | 98.4 ± 0% | – | 93 ± 0.2% | 95.8 ± 0.1% | – | –
5 | O=C1CCC(N2Cc3cc(NC(=O)C4=Cc5ccc(Br)cc5OC4)ccc3C2=O)C(=O)N1 (stereo not shown) [DEG-83, 7-bromo-N-(2-(2,6-dioxopiperidin-3-yl)-1-oxoisoindolin-5-yl)-2H-chromene-3-carboxamide] | 61.9 ± 0.4% | 30.2 ± 2.3% | – | – | 21.8 ± 2.3% | 49 ± 0.8% | – | 12.9 ± 1% | 47.5 ± 0.2% | – | 80.4 ± 0.5% | 94.4 ± 0.2% | – | –
6 | Cc1ccc2c(c1)OCC(C(=O)Nc1ccc3c(c1)CN(C1CCC(=O)NC1=O)C3=O)=C2 (stereo not shown) [DEG-80, N-(2-(2,6-dioxopiperidin-3-yl)-1-oxoisoindolin-5-yl)-7-methyl-2H-chromene-3-carboxamide] | 63.5 ± 1.5% | 66.9 ± 1.1% | – | – | 14.3 ± 2.1% | 28 ± 0.8% | – | 8.6 ± 0.1% | 24 ± 0.1% | – | 72.6 ± 0.9% | 91.5 ± 0.2% | – | –
7 | COc1ccc(/C=C/C(=O)Nc2ccc3c(c2)CN(C2CCC(=O)NC2=O)C3=O)cc1 (stereo not shown) [DEG-60, (E)-N-(2-(2,6-dioxopiperidin-3-yl)-1-oxoisoindolin-5-yl)-3-(4-methoxyphenyl)acrylamide] | 64.3 ± 1.3% | 68.3 ± 1.2% | – | – | 11.6 ± 1.4% | 16.5 ± 2% | – | 17.6 ± 0.8% | 40.3 ± 0.9% | – | 74.7 ± 0.3% | 89.5 ± 0.2% | – | –
8 | COc1ccc2cccc(CC(=O)Nc3ccc4c(c3)CN(C3CCC(=O)NC3=O)C4=O)c2c1 (stereo not shown) [DEG-68, N-(2-(2,6-dioxopiperidin-3-yl)-1-oxoisoindolin-5-yl)-2-(7-methoxynaphthalen-1-yl)acetamide] | 59.7 ± 1.2% | 64.4 ± 1.6% | – | – | 16.6 ± 1.3% | 21.3 ± 1.8% | – | 96.9 ± 0.1% | 97.6 ± 0.1% | – | 92.2 ± 0.1% | 94.4 ± 0.1% | – | –
9 | COc1cccc2c1C=C(C(=O)Nc1ccc3c(c1)CN(C1CCC(=O)NC1=O)C3=O)CO2 (stereo not shown) [DEG-79, N-(2-(2,6-dioxopiperidin-3-yl)-1-oxoisoindolin-5-yl)-5-methoxy-2H-chromene-3-carboxamide] | 59.4 ± 1% | 38.1 ± 3.4% | – | – | 24 ± 1% | 44.3 ± 1.3% | – | 39.4 ± 0.8% | 70.3 ± 0.2% | – | 74.6 ± 0.3% | 93 ± 0.1% | – | –
10 | COc1ccc(CCC(=O)Nc2ccc3c(c2)CN(C2CCC(=O)NC2=O)C3=O)cc1 (stereo not shown) [DEG-57] | 40.3 ± 11.2% | 54.1 ± 2.1% | – | – | 11.7 ± 1.3% | 9.9 ± 0.8% | – | 81.9 ± 0.7% | 92.5 ± 0.2% | – | 76.2 ± 0.4% | 88.6 ± 0.2% | – | –

Results, then the compound that gave them:

Row | CK1α % degradation at 100 nM (CK1α) | CK1α % degradation at 1 μM (CK1α) | Dmax (CK1α; CK1, Table 3, read-out: Dmax CK1a (%)) | DC50 (CK1α; Table 3, read-out: DC50 CK1a) | GSPT1% degradation at 100 nM (GSPT1) | GSPT1% degradation at 1 μM (GSPT1) | Dmax (GSPT1; HEK-293T, Table 3) | IKZF1% degradation at 100 nM (IKZF1) | IKZF1% degradation at 1 μM (IKZF1) | Dmax (IKZF1; HEK-293T, Table 3) | IKZF2% degradation at 100 nM (IKZF2) | IKZF2% degradation at 1 μM (IKZF2) | Dmax (IKZF2; HEK-293T, Table 3) | DC50 (IKZF2; Table 3) | SMILES
11 | 64.8 ± 0.3% | 65.5 ± 2.3% | – | – | 12.5 ± 1.2% | 16.8 ± 1.9% | – | 98.6 ± 0.1% | 98.6 ± 0.1% | – | 89.5 ± 0.1% | 93.2 ± 0.7% | – | – | COc1ccc(Oc2cccc(C(=O)Nc3ccc4c(c3)CN(C3CCC(=O)NC3=O)C4=O)c2)cc1 (stereo not shown) [DEG-69, N-(2-(2,6-dioxopiperidin-3-yl)-1-oxoisoindolin-5-yl)-3-(4-methoxyphenoxy)benzamide]
12 | 33.2 ± 3.2% | 54.5 ± 3.8% | – | – | −1.7 ± 3.4% | −0.9 ± 2.6% | – | 2.7 ± 1.2% | 6.5 ± 1.2% | – | 41.8 ± 2% | 82.5 ± 0.9% | – | – | O=C1CCC(N2Cc3cc(NC(=O)c4ccc5ncsc5c4)ccc3C2=O)C(=O)N1 (stereo not shown) [DEG-72, N-(2-(2,6-dioxopiperidin-3-yl)-1-oxoisoindolin-5-yl)benzo[d]thiazole-6-carboxamide]
13 | 64.1 ± 0.8% | 69.9 ± 0.5% | – | – | 12.1 ± 0.5% | 21.3 ± 1.7% | – | 8.7 ± 1.8% | 17.2 ± 1.2% | – | 81.8 ± 0.4% | 92.8 ± 0% | – | – | COc1cc(C(=O)Nc2ccc3c(c2)CN(C2CCC(=O)NC2=O)C3=O)ccc1Oc1ccccc1 (stereo not shown) [DEG-76, N-(2-(2,6-dioxopiperidin-3-yl)-1-oxoisoindolin-5-yl)-3-methoxy-4-phenoxybenzamide]
14 | 63.7 ± 1.1% | 69.8 ± 0.5% | – | – | 9 ± 1.6% | 13.7 ± 0.3% | – | 59.5 ± 0.2% | 84 ± 0.2% | – | 82.6 ± 0.3% | 93.9 ± 0% | – | – | O=C1CCC(N2Cc3cc(NC(=O)c4cccc(C(=O)c5ccccc5)c4)ccc3C2=O)C(=O)N1 (stereo not shown) [DEG-51, 3-benzoyl-N-(2-(2,6-dioxopiperidin-3-yl)-1-oxoisoindolin-5-yl)benzamide]
15 | 56.6 ± 1.2% | 60.4 ± 0.6% | – | – | 11.1 ± 1.4% | 19.8 ± 0.8% | – | 11.7 ± 0.3% | 26.3 ± 0.6% | – | 67.4 ± 1.2% | 87.8 ± 0.3% | – | – | O=C1CCC(N2Cc3cc(NC(=O)c4ccc(Sc5ccccc5)cc4)ccc3C2=O)C(=O)N1 (stereo not shown) [DEG-73, N-(2-(2,6-dioxopiperidin-3-yl)-1-oxoisoindolin-5-yl)-4-(phenylthio)benzamide]
16 | 50.2 ± 1.7% | 64.7 ± 0.4% | – | – | 2 ± 2.1% | 4.4 ± 1.9% | – | 6.4 ± 0.3% | 22.3 ± 0.5% | – | 61.1 ± 0.5% | 90.6 ± 0.1% | – | – | O=C1CCC(N2Cc3cc(NC(=O)c4ccc5occc5c4)ccc3C2=O)C(=O)N1 (stereo not shown) [DEG-62, N-(2-(2,6-dioxopiperidin-3-yl)-1-oxoisoindolin-5-yl)benzofuran-5-carboxamide]
17 | 54.5 ± 0.6% | 71.1 ± 0.6% | – | – | −1.9 ± 1.4% | 7.8 ± 1.4% | – | 6 ± 0.1% | 6.3 ± 1.6% | – | 60 ± 1% | 89 ± 0.2% | – | – | O=C1CCC(N2Cc3cc(NC(=O)c4ccc5cc(O)ccc5c4)ccc3C2=O)C(=O)N1 (stereo not shown) [DEG-90, N-(2-(2,6-dioxopiperidin-3-yl)-1-oxoisoindolin-5-yl)-6-hydroxy-2-naphthamide]
